Assay results as given in article PMC7588595, “Small-molecule active pharmaceutical ingredients of approved cancer therapeutics inhibit human aspartate/asparagine-β-hydroxylase” (Bioorganic & Medicinal Chemistry, 2020).
Counter-ions that a name gives are not always drawn. Like-named read-outs stand apart in the source and are kept apart here.

Target: T1, human AspH (His6-AspH315–758) (Homo sapiens, UniProt Q12797)
T1 construct: N-Terminally His6-tagged human AspH315–758 (His6-AspH315–758) was produced in Escherichia coli BL21 (DE3) cells; made in house; host or cells: Escherichia coli BL21 (DE3), pET-28a(+) vector
T1 sequence (Q12797 315-758): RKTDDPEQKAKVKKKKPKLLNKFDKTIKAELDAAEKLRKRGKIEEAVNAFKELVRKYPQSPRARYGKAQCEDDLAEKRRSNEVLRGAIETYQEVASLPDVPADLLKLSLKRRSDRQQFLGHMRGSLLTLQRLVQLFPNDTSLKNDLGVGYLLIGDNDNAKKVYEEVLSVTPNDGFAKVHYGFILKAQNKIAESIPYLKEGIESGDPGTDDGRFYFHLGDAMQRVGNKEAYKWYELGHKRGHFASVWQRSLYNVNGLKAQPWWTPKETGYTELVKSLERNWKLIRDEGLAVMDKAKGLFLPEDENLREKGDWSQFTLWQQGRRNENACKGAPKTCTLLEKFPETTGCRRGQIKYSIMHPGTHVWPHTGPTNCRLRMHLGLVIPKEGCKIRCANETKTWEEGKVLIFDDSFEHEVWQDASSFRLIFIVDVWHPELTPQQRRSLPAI
Assay: SPE-MS AspH inhibition assay (hFX-CP101-119 substrate hydroxylation)
Type: biochemical

[1] = AspH-inhibitor screening, 384-well Plate 1
[2] = AspH-inhibitor screening, 384-well Plate 1, substrate conversion
[3] = AspH-inhibitor screening, Plate 1-duplicate
[4] = AspH-inhibitor screening, Plate 1-duplicate, substrate conversion

SMILES	Plate 1 (% inhibition) [1] [%]	Plate 1 (% conversion) [2] [%]	Plate 1-duplicate (% inhibition) [3] [%]	Plate 1-duplicate (% conversion) [4] [%]	Plate 1 (% conversion) [%]	Plate 1 (% inhibition) [%]	Plate 1-duplicate (% conversion) [%]	Plate 1-duplicate (% inhibition) [%]
NCCCNCCSP(=O)(O)O [Amifostine]	3.65	48.06	5.75	49.19	–	–	–	–
CCC1(c2ccc(N)cc2)CCC(=O)NC1=O (stereo not shown) [Aminoglutethimide]	11.22	44.57	9.40	47.38	–	–	–	–
NCC(=O)CCC(=O)O [Aminolevulinic acid hydrochloride]	20.47	40.30	25.89	39.20	–	–	–	–
CN(C)CCN1C(=O)c2cccc3cc(N)cc(c23)C1=O [Amonafide]	4.40	47.72	3.28	50.42	–	–	–	–
O=[As]O[As]=O (stereo not shown) [Arsenic(III) oxide]	–	–	–	–	46.14	7.82	49.86	4.39
CC(C)c1c(C(=O)Nc2ccccc2)c(-c2ccccc2)c(-c2ccc(F)cc2)n1CC[C@@H](O)C[C@@H](O)CC(=O)[O-].CC(C)c1c(C(=O)Nc2ccccc2)c(-c2ccccc2)c(-c2ccc(F)cc2)n1CC[C@@H](O)C[C@@H](O)CC(=O)[O-].[Ca+2] [Atorvastatin Ca]	–	–	–	–	–	0.42	–	-1.82
CC(=O)OC[C@H]1O[C@@H]([S-])[C@H](OC(C)=O)[C@@H](OC(C)=O)[C@@H]1OC(C)=O.CCP(CC)CC.[Au+] [Auranofin]	60.34	21.89	55.51	24.51	–	–	–	–
CNC(=O)c1cc(Oc2ccc(NC(=O)Nc3ccc(Cl)c(C(F)(F)F)c3)c(F)c2)ccn1 [BAY 73-4506_Regorafenib]	62.82	20.74	53.45	25.53	–	–	–	–
O=C(/C=C/c1cccc(S(=O)(=O)Nc2ccccc2)c1)NO [Belinostat (PXD101)]	97.27	4.83	96.98	3.94	–	–	–	–
Cl.Cn1c(CCCC(=O)O)nc2cc(N(CCCl)CCCl)ccc21 [Bendamustine hydrochloride]	2.89	48.41	4.93	49.60	–	–	–	–
CC(O)(CS(=O)(=O)c1ccc(F)cc1)C(=O)Nc1ccc(C#N)c(C(F)(F)F)c1 (stereo not shown) [Bicalutamide]	-2.20	50.76	0.00746	52.04	–	–	–	–
CCNC(=O)CCC/C=C\C[C@@H]1[C@@H](/C=C/[C@@H](O)CCc2ccccc2)[C@H](O)C[C@@H]1O [Bimatoprost]	-1.86	50.61	-1.99	53.03	–	–	–	–

Further lines, with some results ahead:

Plate 1 (% inhibition) [1] [%]	Plate 1 (% conversion) [2] [%]	Plate 1-duplicate (% inhibition) [3] [%]	Plate 1-duplicate (% conversion) [4] [%]	SMILES	Plate 1 (% conversion) [%]	Plate 1 (% inhibition) [%]	Plate 1-duplicate (% conversion) [%]	Plate 1-duplicate (% inhibition) [%]
8.67	45.75	10.50	46.84	CN(Cc1cnc2nc(N)nc(N)c2n1)c1ccc(C(=O)N[C@@H](CCC(=O)O)C(=O)O)cc1 [Abitrexate/Methotrexate]	–	–	–	–
-0.39	49.93	8.49	47.83	CCc1cc2c(cc1N1CCC(N3CCOCC3)CC1)C(C)(C)c1[nH]c3cc(C#N)ccc3c1C2=O [Alectinib]	–	–	–	–
-0.61	50.03	4.67	49.73	Oc1ncnc2[nH]ncc12 [Allopurinol]	–	–	–	–
3.32	48.22	13.59	45.30	CN(C)c1nc(N(C)C)nc(N(C)C)n1 [Altretamine]	–	–	–	–
0.57	49.49	0.27	51.91	O=C1CN2Cc3c(ccc(Cl)c3Cl)N=C2N1 [Anagrelide]	–	–	–	–
2.34	48.67	3.84	50.14	CC(C)(C#N)c1cc(Cn2cncn2)cc(C(C)(C)C#N)c1 [Anastrozole]	–	–	–	–
8.11	46.01	6.00	49.07	CC(=O)Oc1ccccc1C(=O)O [Aspirin (Acetylsalicylic Acid)]	–	–	–	–
0.59	49.48	-0.34	52.21	CNC(=O)c1ccccc1Sc1ccc2c(/C=C/c3ccccn3)n[nH]c2c1 [Axitinib]	–	–	–	–
17.64	41.61	12.26	45.96	Nc1ncn([C@@H]2O[C@H](CO)[C@@H](O)[C@H]2O)c(=O)n1 [Azacitidine]	–	–	–	–
-9.00	53.91	-19.71	61.82	CC[C@@H]1C(=O)N(C)c2cnc(Nc3ccc(C(=O)N[C@H]4CC[C@H](N5CCN(CC6CC6)CC5)CC4)cc3OC)nc2N1C(C)C [BI 6727_Volasertib]	–	–	–	–
-13.53	56.00	-2.41	53.24	COC(=O)c1ccc2c(c1)NC(=O)/C2=C(\Nc1ccc(N(C)C(=O)CN2CCN(C)CC2)cc1)c1ccccc1 [BIBF 1120_Nintedanib]	–	–	–	–
-24.14	60.90	-42.32	73.03	CN(C)C/C=C/C(=O)Nc1cc2c(Nc3ccc(F)c(Cl)c3)ncnc2cc1O[C@H]1CCOC1 [BIBW2992 (Tovok)_Afatinib]	–	–	–	–
5.65	47.14	5.00	49.56	COc1c(C)cnc(Cn2cnc3c(Cl)nc(N)nc32)c1C [BIIB021]	–	–	–	–
7.83	46.14	2.76	50.67	Cc1ccc(-n2nc(C(C)(C)C)cc2NC(=O)Nc2ccc(OCCN3CCOCC3)c3ccccc23)cc1 [BIRB 796 (Doramapimod)]	–	–	–	–
1.72	48.96	-1.07	52.57	Nc1cc(C(F)(F)F)c(-c2cc(N3CCOCC3)nc(N3CCOCC3)n2)cn1 [BKM-120_Buparlisib]	–	–	–	–
-9.55	54.16	-14.91	59.44	CCn1c(C(=O)N(C2CC2)C2CC2)cc2c3c(ncn3C)c(Nc3cc(C)n(C)n3)nc21 [BMS-911543]	–	–	–	–
-5.40	52.24	-0.39	52.24	C=C(c1ccc(C(=O)O)cc1)c1cc2c(cc1C)C(C)(C)CCC2(C)C [Bexarotene]	–	–	–	–
6.81	46.61	7.89	48.13	CC(C)C[C@H](NC(=O)[C@H](Cc1ccccc1)NC(=O)c1cnccn1)B(O)O [Bortezomib]	–	–	–	–
